Assay results published in ChEMBL document CHEMBL3872273, “α-Pyrone derivatives, tetra/hexahydroxanthones, and cyclodepsipeptides from two freshwater fungi” (Bioorg Med Chem, 2017).
Converted amounts (≈) assume the structure as drawn. The source made the active and inactive calls. The rule behind the calls is not given here.

Columns and labels:
Candida albicans = assay: Antimicrobial activity against Candida albicans; assay type: functional
Escherichia coli [1] = assay: Antimicrobial activity against Escherichia coli; assay type: functional
[2] = test system: Mycolicibacterium smegmatis; assay: Antimicrobial activity against Mycobacterium smegmatis; assay type: functional
Staphylococcus aureus = assay: Antimicrobial activity against Staphylococcus aureus; assay type: functional
Aspergillus niger = assay: Antimicrobial activity against Aspergillus niger; assay type: functional
[3] = test system: Salmonella enterica subsp. enterica serovar Typhimurium; assay: (§1) Inhibition of Salmonella typhimurium Peptidyl-tRNA hydrolase assessed as reduction in peptidyl-tRNA cleavage to free tRNA by gel electrophoresis
Pseudomonas aeruginosa = assay: Inhibition of Pseudomonas aeruginosa Peptidyl-tRNA hydrolase assessed as reduction in peptidyl-tRNA cleavage to free tRNA by gel electrophoresis
Escherichia coli [4] = assay: Inhibition of Escherichia coli Peptidyl-tRNA hydrolase assessed as reduction in peptidyl-tRNA cleavage to free tRNA by gel electrophoresis
[5] = as §1; design: species or system Salmonella enterica subsp. enterica serovar Typhimurium

Q: Which results are given for COc1cc(=O)oc2c1CO[C@@H](CC(C)=O)C2 [PYRENOCINE K]?
A: MIC (Candida albicans): > 25 µg/mL; MIC (Escherichia coli [1]): > 25 µg/mL; MIC [2]: > 25 µg/mL; MIC (Staphylococcus aureus): > 25 µg/mL; MIC (Aspergillus niger): > 25 µg/mL

Q: What does the source list for CCC[C@H]1Cc2oc(=O)cc(OC)c2CO1?
A: MIC (Candida albicans): > 203 µg/mL; MIC (Escherichia coli [1]): > 203 µg/mL; MIC [2]: > 203 µg/mL; inhibition [3]: Active; inhibition (Pseudomonas aeruginosa): Active; inhibition (Escherichia coli [4]): Active; MIC (Staphylococcus aureus): > 203 µg/mL; MIC (Aspergillus niger): 203 µg/mL (≈ 905 µM)

Q: For CCC[C@H]1Cc2oc(=O)cc(OC)c2[C@H](O)O1, which MIC (Candida albicans) is on record?
A: The MIC was greater than 75 µg/mL.

Q: And the MIC (Escherichia coli [1])?
A: Its MIC is 75 µg/mL (≈ 312 µM).

Q: What about the MIC [2] of the same compound?
A: Its MIC is greater than 75 µg/mL.

Q: And the MIC (Staphylococcus aureus)?
A: Its MIC is greater than 75 µg/mL.

Q: What about the MIC (Aspergillus niger) of the same compound?
A: Its MIC is greater than 75 µg/mL.

Q: Which MIC (Candida albicans) does the source give for CCC[C@@H](O)Cc1oc(=O)cc(OC)c1C here?
A: The MIC was greater than 155 µg/mL.

Q: What about the MIC (Escherichia coli [1]) of the same compound?
A: The MIC was greater than 155 µg/mL.

Q: What about the MIC [2] of the same compound?
A: The MIC was greater than 155 µg/mL.

Q: What about the MIC (Staphylococcus aureus) of the same compound?
A: The MIC was greater than 155 µg/mL.

Q: And the MIC (Aspergillus niger)?
A: The MIC was greater than 155 µg/mL.

Q: Which MIC (Candida albicans) does the source give for CCCCC(O)c1cc(OC)c(C)c(=O)o1 (racemic) here?
A: Its MIC is greater than 35 µg/mL.

Q: What about the MIC (Escherichia coli [1]) of the same compound?
A: Its MIC is greater than 35 µg/mL.

Q: And the MIC [2]?
A: The MIC was greater than 35 µg/mL.

Q: And the MIC (Staphylococcus aureus)?
A: The MIC was greater than 35 µg/mL.

Q: What about the MIC (Aspergillus niger) of the same compound?
A: Its MIC is greater than 35 µg/mL.

Q: For CC[C@H](C)[C@@H]1NC(=O)[C@H](CCC(N)=O)N(C)C(=O)[C@@H](C(C)C)N(C)C(=O)CNC(=O)[C@@H]2CCCN2C(=O)[C@H](Cc2ccccc2)NC(=O)[C@H]([C@@H](C)CC)OC(=O)[C@H](CCC(=O)O)N(C)C(=O)[C@H](C(C)C)NC(=O)[C@@H]2CCCCN2C1=O, which MIC (Candida albicans) is on record?
A: The MIC was greater than 98 µg/mL.

Q: What about the MIC (Escherichia coli [1]) of the same compound?
A: Its MIC is greater than 98 µg/mL.

Q: And the MIC [2]?
A: The MIC was greater than 98 µg/mL.

Q: What about the MIC (Staphylococcus aureus) of the same compound?
A: Its MIC is greater than 98 µg/mL.

Q: And the MIC (Aspergillus niger)?
A: The MIC was greater than 98 µg/mL.

Q: For CC[C@H](C)[C@@H]1NC(=O)[C@H](CCC(N)=O)N(C)C(=O)[C@@H](C(C)C)N(C)C(=O)CNC(=O)[C@@H]2CCCN2C(=O)[C@H](Cc2ccccc2)NC(=O)[C@H]([C@@H](C)CC)OC(=O)[C@H](CCC(=O)O)N(C)C(=O)[C@H](C(C)C)NC(=O)[C@@H]2CCCN2C1=O, which MIC (Candida albicans) is on record?
A: The MIC was greater than 125 µg/mL.

Q: And the MIC (Escherichia coli [1])?
A: Its MIC is greater than 125 µg/mL.

Q: What about the MIC [2] of the same compound?
A: Its MIC is greater than 125 µg/mL.

Q: What about the MIC (Staphylococcus aureus) of the same compound?
A: Its MIC is greater than 125 µg/mL.

Q: And the MIC (Aspergillus niger)?
A: The MIC was greater than 125 µg/mL.

Q: Which results are given for COC(=O)[C@]12Oc3cccc(O)c3C(=O)C1=C(O)C[C@@H](C)[C@@H]2O?
A: MIC (Candida albicans): > 65 µg/mL; MIC (Escherichia coli [1]): > 65 µg/mL; MIC [2]: > 65 µg/mL; inhibition [3]: Active; inhibition (Pseudomonas aeruginosa): Active; inhibition (Escherichia coli [4]): Active; MIC (Staphylococcus aureus): > 65 µg/mL; MIC (Aspergillus niger): > 65 µg/mL

Q: Which results are given for COc1cc(=O)oc2c1CO[C@@H](C[C@@H](C)O)C2?
A: inhibition [3]: Active; inhibition (Pseudomonas aeruginosa): Active; inhibition (Escherichia coli [4]): Active

Q: For CCC[C@H]1OCc2c(OC)cc(=O)oc2[C@H]1O, which MIC (Candida albicans) is on record?
A: The MIC was 145 µg/mL (≈ 604 µM).

Q: And the MIC (Escherichia coli [1])?
A: The MIC was greater than 145 µg/mL.

Q: What about the MIC [2] of the same compound?
A: Its MIC is 145 µg/mL (≈ 604 µM).

Q: And the inhibition [3]?
A: The inhibition was “Active”.

Q: What about the inhibition (Pseudomonas aeruginosa) of the same compound?
A: The inhibition was “Active”.

Q: What about the inhibition (Escherichia coli [4]) of the same compound?
A: The inhibition was “Active”.

Q: And the MIC (Staphylococcus aureus)?
A: Its MIC is greater than 145 µg/mL.

Q: And the MIC (Aspergillus niger)?
A: Its MIC is greater than 145 µg/mL.

Q: With COC(=O)[C@]12Oc3cccc(O)c3C(=O)[C@@H]1[C@H](O)C[C@@H](C)[C@@H]2O as the compound, how does the MIC (Candida albicans) read?
A: Its MIC is 100 µg/mL (≈ 310 µM).

Q: And the MIC (Escherichia coli [1])?
A: Its MIC is greater than 100 µg/mL.

Q: And the MIC [2]?
A: The MIC was greater than 100 µg/mL.

Q: And the inhibition [3]?
A: The inhibition was “Active”.

Q: What about the inhibition (Pseudomonas aeruginosa) of the same compound?
A: The inhibition was “Active”.

Q: And the inhibition (Escherichia coli [4])?
A: The inhibition was “Active”.

Q: And the MIC (Staphylococcus aureus)?
A: Its MIC is greater than 100 µg/mL.

Q: What about the MIC (Aspergillus niger) of the same compound?
A: The MIC was greater than 100 µg/mL.

Q: Which MIC (Candida albicans) does the source give for COC(=O)[C@]12Oc3cccc(O)c3C(=O)[C@@H]1[C@@H](O)C[C@@H](C)[C@@H]2O here?
A: Its MIC is greater than 75 µg/mL.

Q: And the MIC (Escherichia coli [1])?
A: The MIC was greater than 75 µg/mL.

Q: And the MIC [2]?
A: Its MIC is greater than 75 µg/mL.

Q: What about the MIC (Staphylococcus aureus) of the same compound?
A: Its MIC is greater than 75 µg/mL.

Q: What about the MIC (Aspergillus niger) of the same compound?
A: The MIC was greater than 75 µg/mL.

Q: Which results are given for CCCCCc1oc(=O)cc(OC)c1CO [PYRENOCINE M]?
A: MIC (Candida albicans): > 140 µg/mL; MIC (Escherichia coli [1]): > 140 µg/mL; MIC [2]: > 140 µg/mL; MIC (Staphylococcus aureus): > 140 µg/mL; MIC (Aspergillus niger): > 140 µg/mL

Q: For COc1cc(=O)oc(CO)c1C, which MIC (Candida albicans) is on record?
A: The MIC was 25 µg/mL (≈ 147 µM).

Q: What about the MIC (Escherichia coli [1]) of the same compound?
A: Its MIC is 25 µg/mL (≈ 147 µM).

Q: What about the MIC [2] of the same compound?
A: The MIC was 25 µg/mL (≈ 147 µM).

Q: What about the MIC (Staphylococcus aureus) of the same compound?
A: The MIC was greater than 25 µg/mL.

Q: And the MIC (Aspergillus niger)?
A: The MIC was greater than 25 µg/mL.

Q: Which results are given for COc1cc(=O)oc2c1CO[C@@H](CO)C2?
A: MIC (Candida albicans): > 53 µg/mL; MIC (Escherichia coli [1]): > 53 µg/mL; MIC [2]: > 53 µg/mL; inhibition [3]: Active; inhibition (Pseudomonas aeruginosa): Active; inhibition (Escherichia coli [4]): Active; MIC (Staphylococcus aureus): > 53 µg/mL; MIC (Aspergillus niger): > 53 µg/mL

Q: Which MIC (Candida albicans) does the source give for CCCC(O)Cc1oc(=O)cc(OC)c1CO (racemic) here?
A: The MIC was greater than 55 µg/mL.

Q: What about the MIC (Escherichia coli [1]) of the same compound?
A: Its MIC is greater than 55 µg/mL.

Q: What about the MIC [2] of the same compound?
A: Its MIC is greater than 55 µg/mL.

Q: What about the MIC (Staphylococcus aureus) of the same compound?
A: The MIC was greater than 55 µg/mL.

Q: What about the MIC (Aspergillus niger) of the same compound?
A: Its MIC is greater than 55 µg/mL.

Q: Which MIC (Candida albicans) does the source give for COC(=O)[C@]12Oc3ccc(-c4ccc5c(c4O)C(=O)C4=C(O)C[C@@H](C)[C@H](O)[C@@]4(C(=O)OC)O5)c(O)c3C(=O)C1=C(O)C[C@@H](C)[C@@H]2O [SECALONIC ACID A] here?
A: Its MIC is greater than 75 µg/mL.

Q: And the MIC (Escherichia coli [1])?
A: Its MIC is greater than 75 µg/mL.

Q: What about the MIC [2] of the same compound?
A: The MIC was greater than 75 µg/mL.

Q: And the IC50 [5]?
A: The IC50 was 1.4 mM.

Q: What about the inhibition (Pseudomonas aeruginosa) of the same compound?
A: Its inhibition is “Active”.

Q: And the inhibition (Escherichia coli [4])?
A: Its inhibition is “Active”.

Q: And the MIC (Staphylococcus aureus)?
A: Its MIC is greater than 75 µg/mL.

Q: And the MIC (Aspergillus niger)?
A: Its MIC is greater than 75 µg/mL.
